Data: US9617244B2, “Antibacterial quinoline derivatives” (JANSSEN PHARMACEUTICA NV, priority 2012, dated 2017)
In brackets after ≈: the same amount, converted by molar mass. Counter-ions that a name gives are not always drawn.

Tests used:
[1] = test system: Staphylococcus aureus (ATCC29213); assay: In-vitro anti-bacterial activity, microtitre plate assay, IC90 determination (non-mycobacterial strains); assay type: cell-based; details: 90% inhibitory concentration for bacterial growth, resazurin fluorescence; for IC90 STA B29213: 24 hours; for IC90: Staphylococcus aureus, ATCC29213, 24 h, read-out: IC90 STA B29213
Outline: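 Growth inhibition measured fluorometrically with resazurin (530/590 nm) after overnight 37 °C incubation under normal atmosphere. Bacteria added at roughly 100 TCID50 per well in Mueller-Hinton broth to five-fold compound dilution series; IC90 reported in μg/ml.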

[2] = test system: Mycobacterium smegmatis (ATCC607); assay: In-vitro anti-bacterial activity against strain M. Smegmatis ATCC607; assay type: cell-based; details: 90% inhibitory concentration for bacterial growth, Alamar Blue fluorescence; for IC90 MSM 607: 48 hours; for IC90: Mycolicibacterium smegmatis, ATCC607, 48 h, read-out: IC90 MSM 607
Outline: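 IC90 (μg/ml) derived from Alamar Blue fluorescence (530/590 nm) after 48 h growth at 37 °C under 5% CO2. About 250 CFU per well in Mueller-Hinton broth faced five-fold serial compound dilutions in BSA-containing wells.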

Compound	melting point	IC90 STA B29213 [1]	IC90 MSM 607 [2]	also measured
COc1nc2ccc(F)cc2cc1C(c1ccc(Cl)cc1)C1(O)CCNC(Cc2ccccc2)C1 (stereo not shown) (as salt: fumarate) [Compound 54]	209 °C	–	–	–
CC1CC(O)(C(c2ccc(Cl)cc2)c2cc3cc(Br)ccc3[nH]c2=O)CCN1 (stereo not shown) (as salt: hydrochloride) [Compound 130]	200 °C	–	–	–
COc1nc2ccc(Br)cc2cc1C(c1ccc(Cl)cc1)C1(O)CCNC(Cc2ccc(F)c(F)c2)C1 (stereo not shown) (as salt: fumarate) [Compound 113]	130 °C	–	–	–
COc1nc2ccc(Cl)cc2cc1C(c1ccc(Cl)cc1)C1(O)CCNC(Cc2ccc(F)cc2)C1 (stereo not shown) (as salt: fumarate) [Compound 346]	151 to 153 °C	–	–	–
Cc1cc(F)ccc1C1CC(O)(C(c2ccccc2)c2cc3cc(Br)ccc3[nH]c2=O)CCN1 (stereo not shown) (as salt: hydrochloride) [Compound 192]	> 250 °C	–	–	–
COc1nc2ccccc2cc1C(c1ccccc1)C1(O)CCNC(c2ccc(F)cc2C)C1 (stereo not shown) (as salt: fumarate) [Compound 416]	160 to 162 °C	–	–	–
Cc1cc(F)ccc1C1CC(O)(C(c2cccc(Cl)c2)c2cc3cc(Br)ccc3[nH]c2=O)CCN1 (stereo not shown) (as salt: hydrochloride) [Compound 135]	> 250 °C	–	–	–
COc1nc2ccc(Cl)cc2cc1C(c1ccc(Cl)cc1)C1(O)CCNC(c2ccccc2)C1 (stereo not shown) (as salt: fumarate) [Compound 403]	176 °C	–	–	–
O=c1[nH]c2ccc(Br)cc2cc1C(c1ccc(Cl)cc1)C1(O)CCNC(Cc2ccc(F)cc2F)C1 (stereo not shown) (as salt: hydrochloride) [Compound 314]	234 °C	–	–	–
COc1nc2ccc(Cl)cc2cc1C(c1ccc(Cl)cc1)C1(O)CCNC(Cc2ccc(F)cc2)C1 (stereo not shown) (as salt: fumarate) [Compound 347]	148 to 150 °C	–	–	–
COc1nc2ccc(Br)cc2cc1C(c1cccc(Cl)c1)C1(O)CCNC(c2ccc(F)cc2C)C1 (stereo not shown) (as salt: fumarate) [Compound 151]	156 °C	–	–	–
O=c1[nH]c2ccc(Br)cc2cc1C(c1ccc(Cl)cc1)C1(O)CCNCC1Cc1cccc(F)c1 (stereo not shown) (as salt: hydrochloride) [Compound 229]	> 250 °C	–	–	–
CSc1ccc2[nH]c(=O)c(C(c3ccc(Cl)cc3)C3(O)CCNC(Cc4ccc(F)cc4)C3)cc2c1 (stereo not shown) (as salt: hydrochloride) [Compound 281]	> 250 °C	–	–	–
CCCN(C)CC1CC(O)(C(c2ccc(Cl)cc2)c2cc3cc(Cl)ccc3nc2OC)CCN1 (stereo not shown) (as salt: fumarate) [Compound 64]	141 °C	–	–	–
COc1nc2ccc(Br)cc2cc1C(n1cccn1)[C@@]1(O)CCN[C@H](Cc2ccccc2)C1 (stereo in doubt) (as salt: fumarate) [Compound 67]	245 °C	–	–	–
COc1nc2ccc(SC)cc2cc1C(c1ccc(Cl)cc1)C1(O)CCNC(CC2CCCCC2)C1 (stereo not shown) (as salt: fumarate) [Compound 288]	150 °C	–	–	–
O=c1[nH]c2ccc(Br)cc2cc1C(c1cccc(Cl)c1)C1(O)CCNC(Cc2ccccc2)C1 (stereo not shown) (as salt: hydrochloride) [Compound 85]	> 260 °C	–	–	–
COc1nc2ccc(Br)cc2cc1C(c1cccc(Cl)c1)C1(O)CCNC(c2ccc(F)cc2C)C1 (stereo not shown) (as salt: fumarate) [Compound 152]	170 °C	–	–	–
COc1nc2ccccc2cc1C(c1ccccc1)C1(O)CCNC(Cc2ccccc2)C1 (stereo not shown) (as salt: fumarate) [Compound 399]	222 to 224 °C	–	–	–
COc1nc2ccc(Cl)cc2cc1C(c1ccc(Cl)cc1)C1(O)CCNCC1c1ccccc1 (stereo not shown) (as salt: fumarate) [Compound 410]	155 °C	–	–	–
COc1nc2ccc(Br)cc2cc1C(c1ccccc1)C1(O)CCNC(Cc2ccccc2)C1 (stereo not shown) [Compound 74]	157 °C	–	–	–
O=c1[nH]c2ccc(Br)cc2cc1C(c1ccc(Cl)cc1)C1(O)CCNCC1Cc1cccc(F)c1 (stereo not shown) (as salt: hydrochloride) [Compound 49]	183 °C	–	–	–
COc1nc2ccc(Cl)cc2cc1C(c1ccc(S(C)(=O)=O)cc1)C1(O)CCNC(c2ccc(F)cc2C)C1 (stereo not shown) (as salt: fumarate) [Compound 368]	144 °C	–	–	–
COc1nc2ccc(Cl)cc2cc1C(c1ccc(Cl)cc1)C1(O)CCNC(c2ccccc2)C1 (stereo not shown) (as salt: fumarate) [Compound 405]	184 °C	–	–	–
COc1nc2ccc(Br)cc2cc1C(c1ccc(Cl)cc1)C1(O)CCN(Cc2ccccc2)C(Cc2ccccc2)C1 (stereo not shown) (as salt: fumarate) [Compound 76]	148 °C	–	–	–
O=c1[nH]c2ccc(Br)cc2cc1C(c1ccc(Cl)cc1)C1(O)CCNC(Cc2ccc(F)c(F)c2)C1 (stereo not shown) [Compound 126]	–	3.85 µg/mL (≈ 6.71 µM)	3.06 µg/mL (≈ 5.33 µM)	–

Compound	melting point	IC90 STA B29213 [1]	IC90 MSM 607 [2]	also measured
COc1nc2ccc(SC)cc2cc1C(c1ccccc1)C1(O)CCNC(c2ccc(F)cc2C)C1 (stereo not shown) [Compound 167]	–	3.17 µg/mL (≈ 6.31 µM)	1.26 µg/mL (≈ 2.51 µM)	–
CSc1ccc2[nH]c(=O)c(C(c3ccc(Cl)cc3)C3(O)CCNC(Cc4ccc(F)cc4)C3)cc2c1 (stereo not shown) [Compound 334]	–	8.87 µg/mL (≈ 17 µM)	7.04 µg/mL (≈ 13.5 µM)	–
COc1nc2ccc(SC)cc2cc1C(c1ccc(Cl)cc1)C1(O)CCNC(c2ccc(F)cc2C)C1 (stereo not shown) [Compound 276]	–	1.70 µg/mL (≈ 3.17 µM)	1.07 µg/mL (≈ 1.99 µM)	–
COc1nc2ccccc2cc1C(c1ccccc1)C1(O)CCNC(c2ccc(F)cc2C)C1 (stereo not shown) [Compound 16]	–	–	–	IC90 [1]: 7.21 µg/mL (≈ 15.8 µM); IC90 [2]: 9.08 µg/mL (≈ 19.9 µM)
CSc1ccc2nc(O)c(C(c3ccccc3)C3(O)CCNC(c4ccc(F)cc4C)C3)cc2c1 (stereo not shown) [Compound 183]	–	3.31 µg/mL (≈ 6.77 µM)	3.31 µg/mL (≈ 6.77 µM)	–
COc1nc2ccccc2cc1C(c1ccc(Cl)cc1)C1(O)CCNC(Cc2ccccc2)C1 (stereo not shown) [Compound 19]	–	–	–	IC90 [1]: 5.95 µg/mL (≈ 12.6 µM); IC90 [2]: 3.76 µg/mL (≈ 7.95 µM)
COc1nc2ccc(S(C)(=O)=O)cc2cc1C(c1ccc(Cl)cc1)C1(O)CCNC(Cc2ccc(F)c(F)c2)C1 (stereo not shown) [Compound 210]	–	1.86 µg/mL (≈ 3.17 µM)	2.94 µg/mL (≈ 5.01 µM)	–
COc1nc2ccc(Cl)cc2cc1C(c1ccc(Cl)cc1)C1(O)CCNC(Cc2ccc(F)cc2)C1 (stereo not shown) [Compound 345]	–	4.38 µg/mL (≈ 8.34 µM)	3.48 µg/mL (≈ 6.62 µM)	–
COc1nc2ccc(Br)cc2cc1C(c1ccc(Cl)cc1)C1(O)CCNC(Cc2ccccc2)C1 (stereo not shown) [Compound 32]	–	3.48 µg/mL (≈ 6.31 µM)	1.56 µg/mL (≈ 2.83 µM)	–
CSc1ccc2[nH]c(=O)c(C(c3ccc(Cl)cc3)C3(O)CCNC(c4ccc(F)cc4C)C3)cc2c1 (stereo not shown) [Compound 277]	–	1.76 µg/mL (≈ 3.36 µM)	1.40 µg/mL (≈ 2.68 µM)	–
COc1nc2ccc(Br)cc2cc1C(c1ccc(Cl)cc1)C1(O)CCN(C)C(Cc2ccccc2)C1 (stereo not shown) [Compound 18]	–	–	–	IC90 [1]: 20 µg/mL (≈ 35.3 µM); IC90 [2]: 10 µg/mL (≈ 17.7 µM)
O=c1[nH]c2ccc(Cl)cc2cc1C(c1ccc(Cl)cc1)C1(O)CCNC(Cc2ccccc2)C1 (stereo not shown) [Compound 239]	–	1.67 µg/mL (≈ 3.38 µM)	2.97 µg/mL (≈ 6.02 µM)	–
COc1nc2ccc(Br)cc2cc1C(c1cccc(Cl)c1)C1(O)CCNC(c2ccc(F)cc2C)C1 (stereo not shown) [Compound 173]	–	2.86 µg/mL (≈ 5.02 µM)	–	IC90 [2]: 3.2 µg/mL (≈ 5.62 µM)
COc1nc2ccc(S(C)(=O)=O)cc2cc1C(c1ccc(Cl)cc1)C1(O)CCNCC1Cc1cccc(F)c1 (stereo not shown) [Compound 294]	–	11.36 µg/mL (≈ 20 µM)	14.30 µg/mL (≈ 25.1 µM)	–
Cc1cc(F)ccc1C1CC(O)(C(c2ccc(Cl)cc2)c2cc3cc(S(C)(=O)=O)ccc3[nH]c2=O)CCN1 (stereo not shown) [Compound 223]	–	>14.83 µg/mL	>14.83 µg/mL	–
O=c1[nH]c2ccc(Cl)cc2cc1C(c1ccc(Cl)cc1)C1(O)CCNC(Cc2ccccc2)C1 (stereo not shown) [Compound 5]	–	1.67 µg/mL (≈ 3.38 µM)	1.67 µg/mL (≈ 3.38 µM)	–
O=c1[nH]c2ccc(Br)cc2cc1C(c1ccc(Cl)cc1)C1(O)CCNC(Cc2ccc(F)cc2)C1 (stereo not shown) [Compound 342]	–	7.46 µg/mL (≈ 13.4 µM)	3.74 µg/mL (≈ 6.73 µM)	–
COc1nc2ccc(SC)cc2cc1C(c1ccc(Cl)cc1)C1(O)CCNC(Cc2ccc(F)c(F)c2)C1 (stereo not shown) [Compound 188]	–	2.20 µg/mL (≈ 3.96 µM)	–	IC90 [2]: 2.77 µg/mL (≈ 4.99 µM)
O=c1[nH]c2ccc(Cl)cc2cc1C(c1ccc(Cl)cc1)C1(O)CCNC(Cc2ccccc2)C1 (stereo not shown) [Compound 240]	–	6.67 µg/mL (≈ 13.5 µM)	4.21 µg/mL (≈ 8.53 µM)	–
COc1nc2ccc(F)cc2cc1C(c1ccc(Cl)cc1)C1(O)CCN(C(C)c2ccccc2)C(CO)C1 (stereo not shown) [Compound 14]	–	6.74 µg/mL (≈ 12.6 µM)	3.79 µg/mL (≈ 7.08 µM)	–
CSc1ccc2[nH]c(=O)c(C(c3ccccc3)C3(O)CCNC(c4ccc(F)cc4C)C3)cc2c1 (stereo not shown) [Compound 179]	–	8.69 µg/mL (≈ 17.8 µM)	6.15 µg/mL (≈ 12.6 µM)	–
COc1nc2ccc(S(C)(=O)=O)cc2cc1C(c1ccc(Cl)cc1)C1(O)CCNCC1Cc1cccc(F)c1 (stereo not shown) [Compound 293]	–	7.16 µg/mL (≈ 12.6 µM)	7.16 µg/mL (≈ 12.6 µM)	–
COc1nc2ccccc2cc1C(c1ccc(Cl)cc1)C1(O)CCNC(Cc2ccc(F)c(F)c2)C1 (stereo not shown) [Compound 139]	–	–	1.78 µg/mL (≈ 3.5 µM)	IC90 [1]: 2 µg/mL (≈ 3.93 µM)
CS(=O)(=O)c1ccc2[nH]c(=O)c(C(c3ccc(Cl)cc3)C3(O)CCNC(Cc4ccc(F)c(F)c4)C3)cc2c1 (stereo not shown) [Compound 213]	–	>17.31 µg/mL	>17.31 µg/mL	–
CSc1ccc2[nH]c(=O)c(C(c3cccc(Cl)c3)C3(O)CCNC(c4ccc(F)cc4C)C3)cc2c1 (stereo not shown) [Compound 162]	–	3.52 µg/mL (≈ 6.73 µM)	2.49 µg/mL (≈ 4.76 µM)	–
COc1nc2ccc(Br)cc2cc1C(n1cccn1)[C@@]1(O)CCN[C@H](Cc2ccccc2)C1 (stereo in doubt) [Compound 67]	–	–	–	IC90 [1]: 14.9 µg/mL (≈ 29.4 µM); IC90 [2]: 7.47 µg/mL (≈ 14.7 µM)
